Key:
Assay type in all cases: cell-based
[1] = biological target: T1, human TLR9 (Homo sapiens, UniProt Q9NR96); test: TLR7/8/9 Inhibition Reporter Assays (TLR9); conditions: HEK-Blue cells overexpressing human TLR9, SEAP reporter, stimulated with TLR9 ligand ODN2006
T1 construct: host or cells: HEK-Blue cells (HEK293-derived reporter line)
T1 sequence (Q9NR96 26-1032): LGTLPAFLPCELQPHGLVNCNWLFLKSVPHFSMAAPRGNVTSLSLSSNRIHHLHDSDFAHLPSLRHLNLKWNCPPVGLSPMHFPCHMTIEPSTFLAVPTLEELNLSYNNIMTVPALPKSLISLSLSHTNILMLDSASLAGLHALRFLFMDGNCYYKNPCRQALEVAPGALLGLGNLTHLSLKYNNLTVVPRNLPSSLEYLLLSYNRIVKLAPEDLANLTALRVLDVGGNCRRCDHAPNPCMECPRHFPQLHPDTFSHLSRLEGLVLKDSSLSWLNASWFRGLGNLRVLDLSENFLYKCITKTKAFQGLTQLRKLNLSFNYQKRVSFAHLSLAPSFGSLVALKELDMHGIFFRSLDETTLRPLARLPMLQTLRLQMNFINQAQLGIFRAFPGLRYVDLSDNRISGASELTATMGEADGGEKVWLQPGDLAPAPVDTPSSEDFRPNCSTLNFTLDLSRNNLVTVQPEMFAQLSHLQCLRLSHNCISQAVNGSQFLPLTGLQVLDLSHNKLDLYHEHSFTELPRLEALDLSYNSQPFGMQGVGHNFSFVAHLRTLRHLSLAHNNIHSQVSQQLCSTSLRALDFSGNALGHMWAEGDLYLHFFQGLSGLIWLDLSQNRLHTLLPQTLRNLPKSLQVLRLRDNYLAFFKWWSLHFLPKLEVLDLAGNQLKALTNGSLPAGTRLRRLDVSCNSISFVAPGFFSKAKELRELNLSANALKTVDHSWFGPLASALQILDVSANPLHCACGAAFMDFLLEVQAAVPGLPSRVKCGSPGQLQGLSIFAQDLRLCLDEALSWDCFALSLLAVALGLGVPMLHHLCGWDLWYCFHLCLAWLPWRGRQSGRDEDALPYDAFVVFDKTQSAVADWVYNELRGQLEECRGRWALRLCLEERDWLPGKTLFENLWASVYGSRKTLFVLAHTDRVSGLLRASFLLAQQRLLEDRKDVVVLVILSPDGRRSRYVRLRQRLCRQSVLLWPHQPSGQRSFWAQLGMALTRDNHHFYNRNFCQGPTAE
Procedure, shortened: (§1)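 HEK-Blue cells overexpressing human TLR7, TLR8 or TLR9 with NF-κB/AP-1-driven SEAP reporter, pre-treated 60 min with compound ([…]). Stimulated with […] (TLR7), […] (TLR8) or ODN2006 200 nM (TLR9), then 22 h at 37° C; SEAP measured, % inhibition relative to agonist-plus-DMSO and known-inhibitor wells.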

[2] = biological target: T2, human TLR7 (Homo sapiens, UniProt Q9NYK1); test: TLR7/8/9 Inhibition Reporter Assays (TLR7); conditions: HEK-Blue cells overexpressing human TLR7, SEAP reporter, stimulated with TLR7 ligand gardiquimod
T2 construct: host or cells: HEK-Blue cells (HEK293-derived reporter line)
T2 sequence (Q9NYK1 27-1049): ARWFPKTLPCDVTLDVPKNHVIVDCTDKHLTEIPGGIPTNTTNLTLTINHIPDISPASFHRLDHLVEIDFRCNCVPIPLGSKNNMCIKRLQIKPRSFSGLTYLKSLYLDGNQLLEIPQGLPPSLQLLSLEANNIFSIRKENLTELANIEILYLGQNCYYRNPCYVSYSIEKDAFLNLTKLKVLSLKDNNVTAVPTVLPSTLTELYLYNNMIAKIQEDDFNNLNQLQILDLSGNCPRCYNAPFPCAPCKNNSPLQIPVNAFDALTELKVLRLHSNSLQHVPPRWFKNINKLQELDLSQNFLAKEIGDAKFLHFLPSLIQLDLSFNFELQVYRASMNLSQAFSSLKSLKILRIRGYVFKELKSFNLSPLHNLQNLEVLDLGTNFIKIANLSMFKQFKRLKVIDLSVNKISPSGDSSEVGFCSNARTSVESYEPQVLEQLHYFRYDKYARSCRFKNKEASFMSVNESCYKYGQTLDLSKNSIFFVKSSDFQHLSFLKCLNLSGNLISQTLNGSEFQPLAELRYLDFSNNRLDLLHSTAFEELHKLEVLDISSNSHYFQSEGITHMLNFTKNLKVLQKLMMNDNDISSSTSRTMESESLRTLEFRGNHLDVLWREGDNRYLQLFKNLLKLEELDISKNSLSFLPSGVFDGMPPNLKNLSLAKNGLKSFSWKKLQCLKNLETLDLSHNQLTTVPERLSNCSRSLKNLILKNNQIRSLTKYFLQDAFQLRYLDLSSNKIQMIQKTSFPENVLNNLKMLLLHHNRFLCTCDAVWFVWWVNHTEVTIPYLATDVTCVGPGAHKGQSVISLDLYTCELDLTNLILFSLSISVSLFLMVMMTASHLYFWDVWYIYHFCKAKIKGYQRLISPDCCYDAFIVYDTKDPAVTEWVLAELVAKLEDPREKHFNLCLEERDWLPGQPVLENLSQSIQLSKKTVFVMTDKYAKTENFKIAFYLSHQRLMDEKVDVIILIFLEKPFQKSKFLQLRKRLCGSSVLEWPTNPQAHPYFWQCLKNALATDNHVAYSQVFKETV
Procedure, shortened: as §1

[3] = biological target: T3, human TLR8 (Homo sapiens, UniProt Q9NR97); test: TLR7/8/9 Inhibition Reporter Assays (TLR8); conditions: HEK-Blue cells overexpressing human TLR8, SEAP reporter, stimulated with TLR8 ligand R848
T3 construct: host or cells: HEK-Blue cells (HEK293-derived reporter line)
T3 sequence (Q9NR97 27-1041): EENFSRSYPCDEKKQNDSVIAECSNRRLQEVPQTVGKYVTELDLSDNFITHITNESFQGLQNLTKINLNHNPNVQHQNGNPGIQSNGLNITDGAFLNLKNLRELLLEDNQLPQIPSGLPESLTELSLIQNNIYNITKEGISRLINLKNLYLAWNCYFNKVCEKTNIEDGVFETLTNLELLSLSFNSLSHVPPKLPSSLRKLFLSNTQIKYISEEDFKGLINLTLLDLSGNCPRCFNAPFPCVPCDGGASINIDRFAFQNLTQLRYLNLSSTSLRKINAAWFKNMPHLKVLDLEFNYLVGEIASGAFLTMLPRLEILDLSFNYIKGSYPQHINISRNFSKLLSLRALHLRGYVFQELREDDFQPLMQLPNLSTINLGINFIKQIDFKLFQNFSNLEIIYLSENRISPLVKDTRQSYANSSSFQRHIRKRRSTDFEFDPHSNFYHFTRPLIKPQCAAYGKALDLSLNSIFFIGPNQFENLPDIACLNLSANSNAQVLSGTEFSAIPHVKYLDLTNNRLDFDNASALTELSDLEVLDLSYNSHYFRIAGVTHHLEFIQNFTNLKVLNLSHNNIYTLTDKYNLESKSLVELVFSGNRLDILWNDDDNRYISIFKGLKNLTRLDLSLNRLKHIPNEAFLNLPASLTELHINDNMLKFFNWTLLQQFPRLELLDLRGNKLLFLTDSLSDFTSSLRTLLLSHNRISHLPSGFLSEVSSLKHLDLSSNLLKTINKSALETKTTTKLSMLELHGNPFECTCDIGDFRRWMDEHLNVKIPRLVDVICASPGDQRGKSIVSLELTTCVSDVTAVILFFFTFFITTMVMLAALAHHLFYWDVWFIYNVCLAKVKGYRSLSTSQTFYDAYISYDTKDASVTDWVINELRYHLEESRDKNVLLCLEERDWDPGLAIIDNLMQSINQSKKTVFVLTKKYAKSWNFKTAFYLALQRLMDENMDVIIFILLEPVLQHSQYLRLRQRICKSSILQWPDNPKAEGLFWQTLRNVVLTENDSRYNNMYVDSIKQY
Procedure, shortened: as §1

Structure (SMILES) | IC50 [1] [nM] | IC50 [2] [nM] | IC50 [3] [nM]
Cc1nc(-c2ccc(N3C[C@@H]4CN(C(C)C)C[C@@H]4C3)cc2)cc2c1nc(-c1ccc(S(C)(=O)=O)cc1)n2C [Example 67, 6-(4-((3aR,6aS)-5-isopropylhexahydropyrrolo[3,4-c]pyrrol-2(1H)-yl)phenyl)-1,4-dimethyl-2-(4-(methylsulfonyl)phenyl)-1H-imidazo[4,5-c]pyridine] | 41 | 1900 | 1800
Cc1nc(-c2ccc(N3CCC4(CC3)CN(CC(C)C)C4)cc2)cc2c1nc(-c1ccc(S(C)(=O)=O)cc1)n2C [Example 73, 6-(4-(2-isobutyl-2,7-diazaspiro[3.5]nonan-7-yl)phenyl)-1,4-dimethyl-2-(4-(methylsulfonyl)phenyl)-1H-imidazo[4,5-c]pyridine] | 110 | 890 | 3900
Cc1nc(-c2ccc(N3C[C@H]4CN(CC(C)C)C[C@H]4C3)cc2)cc2c1nc(-c1ccc(S(C)(=O)=O)cc1)n2C [Example 68, 6-(4-((3aR,6aS)-5-isobutylhexahydropyrrolo[3,4-c]pyrrol-2(1H)-yl)phenyl)-1,4-dimethyl-2-(4-(methylsulfonyl)phenyl)-1H-imidazo[4,5-c]pyridine] | 32 | 2000 | 3100
Cc1nc(-c2ccc(CN3CCN(C(C)C)CC3)cc2)cc2c1nc(-c1ccc(S(C)(=O)=O)cc1)n2C [Example 5, 6-(4-((4-isopropylpiperazin-1-yl)methyl)phenyl)-1,4-dimethyl-2-(4-(methylsulfonyl)phenyl)-1H-imidazo[4,5-c]pyridine] | 790 | 7200 | 22000
Cc1nc(-c2ccc(C3CCN(CC4COC4)CC3)cc2)cc2c1nc(-c1ccc(S(C)(=O)=O)cc1)n2C [Example 29, 1,4-dimethyl-2-(4-(methylsulfonyl)phenyl)-6-(4-(1-(oxetan-3-ylmethyl)piperidin-4-yl)phenyl)-1H-imidazo[4,5-c]pyridine] | 1100 | 13000 | > 50000
Cc1nc(-c2ccc(N3CC4(C3)CN(C3COC3)C4)cc2)cc2c1nc(-c1ccc(S(C)(=O)=O)cc1)n2C [Example 107, 1,4-dimethyl-2-(4-(methylsulfonyl)phenyl)-6-(4-(6-(oxetan-3-yl)-2,6-diazaspiro[3.3]heptan-2-yl)phenyl)-1H-imidazo[4,5-c]pyridine] | 980 | 30000 | > 50000
Cc1nc(-c2ccc(N3CCC4(CC3)CN(C3CCC3)C4)cc2)cc2c1nc(-c1ccc(S(C)(=O)=O)cc1)n2C [Example 74, 6-(4-(2-cyclobutyl-2,7-diazaspiro[3.5]nonan-7-yl)phenyl)-1,4-dimethyl-2-(4-(methylsulfonyl)phenyl)-1H-imidazo[4,5-c]pyridine] | 38 | 1100 | 3700
Cc1nc(-c2ccc(N3CCN(CCCN4CCOCC4)CC3)cc2)cc2c1nc(-c1ccc(S(C)(=O)=O)cc1)n2C [Example 52, 4-(3-(4-(4-(1,4-dimethyl-2-(4-(methylsulfonyl)phenyl)-1H-imidazo[4,5-c]pyridin-6-yl)phenyl)piperazin-1-yl)propyl)morpholine] | 28 | 1700 | 2600
CC(C)CN1C[C@@H]2CN(c3ccc(-c4cc5c(cn4)nc(-c4ccc(S(C)(=O)=O)cc4)n5C4CC4)cc3)C[C@@H]2C1 [Example 88, 1-cyclopropyl-6-(4-((3aR,6aS)-5-isobutylhexahydropyrrolo[3,4-c]pyrrol-2(1H)-yl)phenyl)-2-(4-(methylsulfonyl)phenyl)-1H-imidazo[4,5-c]pyridine] | 330 | 3400 | 1100
COc1ccc(-c2nc3cnc(-c4ccc(N5CCC6(CC5)CN(C(C)C)C6)cc4)cc3n2C2CC2)cc1OC [Example 83, 1-cyclopropyl-2-(3,4-dimethoxyphenyl)-6-(4-(2-isopropyl-2,7-diazaspiro[3.5]nonan-7-yl)phenyl)-1H-imidazo[4,5-c]pyridine] | 340 | 1800 | 12000
COc1ccc(-c2nc3cnc(-c4ccc(N5C[C@@H]6CN(C(C)C)C[C@@H]6C5)cc4)cc3n2C2CC2)cc1OC [Example 81, 1-cyclopropyl-2-(3,4-dimethoxyphenyl)-6-(4-((3aR,6aS)-5-isopropylhexahydropyrrolo[3,4-c]pyrrol-2(1H)-yl)phenyl)-1H-imidazo[4,5-c]pyridine] | 120 | 3000 | 3300
COc1ccc(-c2nc3c(C)nc(-c4ccc(N5CCN(CC(C)C)CC5)cc4)cc3n2C)cc1OC [Example 17, 2-(3,4-dimethoxyphenyl)-6-(4-(4-isobutylpiperazin-1-yl)phenyl)-1,4-dimethyl-1H-imidazo[4,5-c]pyridine] | 460 | 4400 | 12000

Source: patent publication US20250163054A1, “SUBSTITUTED BICYCLIC HETEROARYL COMPOUNDS USEFUL AS INHIBITORS OF TLR9” (Bristol-Myers Squibb Company, priority 2022, published 2025)
